Experimental data as given in US11912671B1, “Ethyl 3-(5-(3-fluorophenyl)-4-phenyl-4H-1,2,4- triazol-3-ylthio)propanoate as an antimicrobial compound” (KING FAISAL UNIVERSITY, priority 2023, dated 2024).

Experiments:
Type in all cases: cell-based
Bacillus cereus = assay: agar plate disc-diffusion, antibacterial inhibition zone; conditions: nutrient agar, 37° C., 48 hours
Method: (§1) The agar plate disc-diffusion method was applied. […] The discs were then placed onto the surface of agar plates (nutrient agar for bacteria and Sabouraud's dextrose agar for fungi) seeded with the test organism. Each plate contained 15 mL of the agar medium, previously seeded with 0.2 mL of the broth culture of each organism pregrown for 18 hours. The plates were incubated at 37° C. for 48 hours, and 72 hours for fungi. The inhibition zones were measured in mm. Discs impregnated with DMSO were used as a control, and its inhibition zone was subtracted from the tested compound actual inhibition zone.

Escherichia coli = assay: as above; conditions: nutrient agar, 37° C., 48 hours
Method: as §1

Pseudomonas aeruginosa = assay: as above; conditions: nutrient agar, 37° C., 48 hours
Method: as §1

Staphylococcus aureus = assay: as above; conditions: nutrient agar, 37° C., 48 hours
Method: as §1

Aspergillus flavus = assay: agar plate disc-diffusion, antifungal inhibition zone; conditions: Sabouraud's dextrose agar, 72 hours
Method: as §1

[1] = system: Chrysosporium keratinophilum; assay: as above; conditions: Sabouraud's dextrose agar, 72 hours
Method: as §1

[2] = A = concentration of comp. = 10,000 μL
[3] = B = concentration of comp. = 30,000 μL
[4] = C = concentration of comp. = 50,000 μL

## CCOC(=O)CCSc1nnc(-c2cccc(F)c2)n1-c1ccccc1 [III, ethyl 3-(5-(3-fluorophenyl)-4-phenyl-4H-1,2,4-triazol-3-ylthio)propanoate]
Bacillus cereus; [2]
  inhibition zone, Bacillus Cereus, A: 25 mm
Bacillus cereus; [3]
  inhibition zone, Bacillus Cereus, B: 28 mm
Bacillus cereus; [4]
  inhibition zone, Bacillus Cereus, C: 38 mm
Escherichia coli; [2]
  inhibition zone, Escherichia coli, A: 27 mm
Escherichia coli; [3]
  inhibition zone, Escherichia coli, B: 36 mm
Escherichia coli; [4]
  inhibition zone, Escherichia coli, C: 53 mm
Pseudomonas aeruginosa; [2]
  inhibition zone, Pseudomonas aeruginosa, A: 26 mm
Pseudomonas aeruginosa; [3]
  inhibition zone, Pseudomonas aeruginosa, B: 29 mm
Pseudomonas aeruginosa; [4]
  inhibition zone, Pseudomonas aeruginosa, C: 46 mm
Staphylococcus aureus; [2]
  inhibition zone, Staphylococcus aureus, A: 17 mm
Staphylococcus aureus; [3]
  inhibition zone, Staphylococcus aureus, B: 21 mm
Staphylococcus aureus; [4]
  inhibition zone, Staphylococcus aureus, C: 30 mm
Aspergillus flavus; [2]
  inhibition zone, Aspergillus flavus, A: 25 mm
Aspergillus flavus; [3]
  inhibition zone, Aspergillus flavus, B: 28 mm
Aspergillus flavus; [4]
  inhibition zone, Aspergillus flavus, C: 34 mm
[1]; [2]
  inhibition zone, Chrysosporium keratinophilum, A: 26 mm
[1]; [3]
  inhibition zone, Chrysosporium keratinophilum, B: 28 mm
[1]; [4]
  inhibition zone, Chrysosporium keratinophilum, C: 46 mm
